Measurements published in patent publication US20210045385A1, “PYRIDAZINONE-SUBSTITUTED KETOXIMES AS HERBICIDES” (FMC Corporation, priority 2018, published 2021).

Experiments:
Format in all cases: in vivo
[1] = system: Italian ryegrass (Lolium multiflorum); test: Test A postemergence, visual plant response rating; details: for Ryegrass, Italian plant response rating (0 to 100 scale): 500 g ai/ha, postemergence, 0 is no effect, 100 is complete control; for Ryegrass, Italian plant response rating: Postemergence, 125 g ai/ha, 0 to 100 scale (0 no effect, 100 complete control)
How it was run: (§1)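 Compared with untreated controls, treated plants received a visual injury score on a 0–100 scale around 10 days after application. The compound, in a non-phytotoxic solvent with surfactant, was given as a preemergence soil spray or postemergence at the one- to two-leaf stage.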

[2] = system: galium (catchweed bedstraw, Galium aparine); test: Test A postemergence, visual plant response rating; details: for Galium plant response rating (0 to 100 scale): 500 g ai/ha, postemergence, 0 is no effect, 100 is complete control; for Galium plant response rating: Postemergence, 125 g ai/ha, 0 to 100 scale (0 no effect, 100 complete control)
How it was run: as §1

[3] = system: foxtail, green (green foxtail, Setaria viridis); test: Test A postemergence, visual plant response rating; details: for Foxtail, Green plant response rating (0 to 100 scale): 500 g ai/ha, postemergence, 0 is no effect, 100 is complete control; for Foxtail, Green plant response rating: Postemergence, 125 g ai/ha, 0 to 100 scale (0 no effect, 100 complete control)
How it was run: as §1

corn (Zea mays) = test: Test A postemergence, visual plant response rating; details: for Corn plant response rating (0 to 100 scale): 500 g ai/ha, postemergence, 0 is no effect, 100 is complete control; for Corn plant response rating: Postemergence, 125 g ai/ha, 0 to 100 scale (0 no effect, 100 complete control)
How it was run: as §1

[4] = system: blackgrass (Alopecurus myosuroides); test: Test A postemergence, visual plant response rating; details: for Blackgrass plant response rating (0 to 100 scale): 500 g ai/ha, postemergence, 0 is no effect, 100 is complete control; for Blackgrass plant response rating: Postemergence, 125 g ai/ha, 0 to 100 scale (0 no effect, 100 complete control)
How it was run: as §1

[5] = system: wheat (Triticum aestivum); test: Test A postemergence, visual plant response rating; details: for Wheat plant response rating (0 to 100 scale): 500 g ai/ha, postemergence, 0 is no effect, 100 is complete control; for Wheat plant response rating: Postemergence, 125 g ai/ha, 0 to 100 scale (0 no effect, 100 complete control)
How it was run: as §1

[6] = system: barnyardgrass (Echinochloa crus-galli); test: Test A postemergence, visual plant response rating; details: for Barnyardgrass plant response rating (0 to 100 scale): 500 g ai/ha, postemergence, 0 is no effect, 100 is complete control; for Barnyardgrass plant response rating: Postemergence, 125 g ai/ha, 0 to 100 scale (0 no effect, 100 complete control)
How it was run: as §1

[7] = system: pigweed (Amaranthus retroflexus); test: Test A postemergence, visual plant response rating; details: for Pigweed plant response rating (0 to 100 scale): 500 g ai/ha, postemergence, 0 is no effect, 100 is complete control; for Pigweed plant response rating: Postemergence, 125 g ai/ha, 0 to 100 scale (0 no effect, 100 complete control)
How it was run: as §1

kochia (Kochia scoparia) [8] = test: Test A postemergence, visual plant response rating; details: for Kochia plant response rating (0 to 100 scale): 500 g ai/ha, postemergence, 0 is no effect, 100 is complete control; for Kochia plant response rating: Postemergence, 125 g ai/ha, 0 to 100 scale (0 no effect, 100 complete control)
How it was run: as §1

[9] = system: ragweed (common ragweed, Ambrosia elatior); test: Test A postemergence, visual plant response rating; details: for Ragweed plant response rating (0 to 100 scale): 500 g ai/ha, postemergence, 0 is no effect, 100 is complete control; for Ragweed plant response rating: Postemergence, 125 g ai/ha, 0 to 100 scale (0 no effect, 100 complete control)
How it was run: as §1

rice (Oryza sativa) = test: Test B flooded paddy test, visual plant response rating; details: 250 g ai/ha, Flood, applied to paddy water, 2-leaf stage, evaluated after 13 to 15 days
How it was run: (§2)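 Flooded-pot treatment: water 3 cm over the soil, chemical delivered into that water, depth unchanged for the duration. Assessed by eye versus controls following 13–15 greenhouse days; plants were at 2 leaves when dosed.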

[10] = system: barnyardgrass (Echinochloa crus-galli); test: as above; details: 250 g ai/ha, Flood, applied to paddy water, 2-leaf stage, evaluated after 13 to 15 days
How it was run: as §2

[11] = system: ducksalad (Heteranhera limosa); test: as above; details: 250 g ai/ha, Flood, applied to paddy water, 2-leaf stage, evaluated after 13 to 15 days
How it was run: as §2

[12] = system: sedge, umbrella (small-flower umbrella sedge, Cyperus difformis); test: as above; details: 250 g ai/ha, Flood, applied to paddy water, 2-leaf stage, evaluated after 13 to 15 days
How it was run: as §2

[13] = system: Italian ryegrass (Lolium multiflorum); test: Test A preemergence, visual plant response rating; details: approx. 10 days
How it was run: as §1

[14] = system: foxtail, green (green foxtail, Setaria viridis); test: Test A preemergence, visual plant response rating; details: approx. 10 days
How it was run: as §1

[15] = system: barnyardgrass (Echinochloa crus-galli); test: Test A preemergence, visual plant response rating; details: approx. 10 days
How it was run: as §1

[16] = system: pigweed (Amaranthus retroflexus); test: Test A preemergence, visual plant response rating; details: approx. 10 days
How it was run: as §1

kochia (Kochia scoparia) [17] = test: Test A preemergence, visual plant response rating; details: approx. 10 days
How it was run: as §1

[18] = system: ragweed (common ragweed, Ambrosia elatior); test: Test A preemergence, visual plant response rating; details: approx. 10 days
How it was run: as §1

CON=C(c1ccccc1Cl)c1c(O)c(C)nn(C)c1=O (stereo in doubt) [Compound 29]
Ryegrass, Italian plant response rating (0 to 100 scale) [1]: 90 | Ryegrass, Italian plant response rating [1]: 30 | Galium plant response rating (0 to 100 scale) [2]: 80 | Galium plant response rating [2]: 70 | Foxtail, Green plant response rating (0 to 100 scale) [3]: 20 | Foxtail, Green plant response rating [3]: 0 | Corn plant response rating (0 to 100 scale) (corn (Zea mays)): 10 | Corn plant response rating (corn (Zea mays)): 0 | Blackgrass plant response rating (0 to 100 scale) [4]: 70 | Blackgrass plant response rating [4]: 20 | Wheat plant response rating (0 to 100 scale) [5]: 20 | Wheat plant response rating [5]: 20 | Barnyardgrass plant response rating (0 to 100 scale) [6]: 20 | Barnyardgrass plant response rating [6]: 0 | Pigweed plant response rating (0 to 100 scale) [7]: 50 | Pigweed plant response rating [7]: 40 | Kochia plant response rating (0 to 100 scale) (kochia (Kochia scoparia) [8]): 30 | Kochia plant response rating (kochia (Kochia scoparia) [8]): 10 | Ragweed plant response rating (0 to 100 scale) [9]: 70 | Ragweed plant response rating [9]: 60 | Plant response rating, Rice (0 to 100 scale, 0 is no effect, 100 is complete control) (rice (Oryza sativa)): 0 | Plant response rating, Barnyardgrass (0 to 100 scale, 0 is no effect, 100 is complete control) [10]: 0 | Plant response rating, Ducksalad (0 to 100 scale, 0 is no effect, 100 is complete control) [11]: 0 | Plant response rating, Sedge, Umbrella (0 to 100 scale, 0 is no effect, 100 is complete control) [12]: 0 | Ryegrass, Italian plant response rating (0 to 100 scale) ([13]; 125 g ai/ha Preemergence): 20 | Ryegrass, Italian plant response rating (0 to 100 scale) ([13]; 500 g ai/ha Preemergence): 70 | Foxtail, Green plant response rating (0 to 100 scale) ([14]; 125 g ai/ha Preemergence): 30 | Foxtail, Green plant response rating (0 to 100 scale) ([14]; 500 g ai/ha Preemergence): 50 | Barnyardgrass plant response rating (0 to 100 scale) ([15]; 125 g ai/ha Preemergence): 30 | Barnyardgrass plant response rating (0 to 100 scale) ([15]; 500 g ai/ha Preemergence): 50 | Pigweed plant response rating (0 to 100 scale) ([16]; 125 g ai/ha Preemergence): 0 | Pigweed plant response rating (0 to 100 scale) ([16]; 500 g ai/ha Preemergence): 20 | Kochia plant response rating (0 to 100 scale) (kochia (Kochia scoparia) [17]; 125 g ai/ha Preemergence): 0 | Kochia plant response rating (0 to 100 scale) (kochia (Kochia scoparia) [17]; 500 g ai/ha Preemergence): 10 | Ragweed plant response rating (0 to 100 scale) ([18]; 125 g ai/ha Preemergence): 30 | Ragweed plant response rating (0 to 100 scale) ([18]; 500 g ai/ha Preemergence): 90

CCn1nc(C)c(O)c(/C(=N/OC)c2cccc(C)c2)c1=O [Compound 1]
Ryegrass, Italian plant response rating (0 to 100 scale) [1]: 20 | Ryegrass, Italian plant response rating [1]: 0 | Galium plant response rating (0 to 100 scale) [2]: 30 | Galium plant response rating [2]: 0 | Foxtail, Green plant response rating (0 to 100 scale) [3]: 10 | Foxtail, Green plant response rating [3]: 0 | Corn plant response rating (0 to 100 scale) (corn (Zea mays)): 0 | Corn plant response rating (corn (Zea mays)): 0 | Blackgrass plant response rating (0 to 100 scale) [4]: 20 | Blackgrass plant response rating [4]: 0 | Wheat plant response rating (0 to 100 scale) [5]: 0 | Wheat plant response rating [5]: 0 | Barnyardgrass plant response rating (0 to 100 scale) [6]: 10 | Barnyardgrass plant response rating [6]: 0 | Pigweed plant response rating (0 to 100 scale) [7]: 0 | Pigweed plant response rating [7]: 0 | Kochia plant response rating (0 to 100 scale) (kochia (Kochia scoparia) [8]): 0 | Kochia plant response rating (kochia (Kochia scoparia) [8]): 0 | Ragweed plant response rating (0 to 100 scale) [9]: 0 | Ragweed plant response rating [9]: 0 | Plant response rating, Rice (0 to 100 scale, 0 is no effect, 100 is complete control) (rice (Oryza sativa)): 0 | Plant response rating, Barnyardgrass (0 to 100 scale, 0 is no effect, 100 is complete control) [10]: 0 | Plant response rating, Ducksalad (0 to 100 scale, 0 is no effect, 100 is complete control) [11]: 0 | Plant response rating, Sedge, Umbrella (0 to 100 scale, 0 is no effect, 100 is complete control) [12]: 0 | Ryegrass, Italian plant response rating (0 to 100 scale) ([13]; 125 g ai/ha Preemergence): 0 | Ryegrass, Italian plant response rating (0 to 100 scale) ([13]; 500 g ai/ha Preemergence): 40 | Foxtail, Green plant response rating (0 to 100 scale) ([14]; 125 g ai/ha Preemergence): 10 | Foxtail, Green plant response rating (0 to 100 scale) ([14]; 500 g ai/ha Preemergence): 30 | Barnyardgrass plant response rating (0 to 100 scale) ([15]; 125 g ai/ha Preemergence): 0 | Barnyardgrass plant response rating (0 to 100 scale) ([15]; 500 g ai/ha Preemergence): 0 | Pigweed plant response rating (0 to 100 scale) ([16]; 125 g ai/ha Preemergence): 0 | Pigweed plant response rating (0 to 100 scale) ([16]; 500 g ai/ha Preemergence): 0 | Kochia plant response rating (0 to 100 scale) (kochia (Kochia scoparia) [17]; 125 g ai/ha Preemergence): 0 | Kochia plant response rating (0 to 100 scale) (kochia (Kochia scoparia) [17]; 500 g ai/ha Preemergence): 0 | Ragweed plant response rating (0 to 100 scale) ([18]; 125 g ai/ha Preemergence): 0 | Ragweed plant response rating (0 to 100 scale) ([18]; 500 g ai/ha Preemergence): 10
